This note sets out measurements from PMC6007452 (Journal of Insect Science, 2018).

For data set [1], the target named is T1, HaTreh-1 (soluble trehalase) (Helicoverpa armigera, UniProt A0A6B8YU37).
T1 sequence (A0A6B8YU37 24-571): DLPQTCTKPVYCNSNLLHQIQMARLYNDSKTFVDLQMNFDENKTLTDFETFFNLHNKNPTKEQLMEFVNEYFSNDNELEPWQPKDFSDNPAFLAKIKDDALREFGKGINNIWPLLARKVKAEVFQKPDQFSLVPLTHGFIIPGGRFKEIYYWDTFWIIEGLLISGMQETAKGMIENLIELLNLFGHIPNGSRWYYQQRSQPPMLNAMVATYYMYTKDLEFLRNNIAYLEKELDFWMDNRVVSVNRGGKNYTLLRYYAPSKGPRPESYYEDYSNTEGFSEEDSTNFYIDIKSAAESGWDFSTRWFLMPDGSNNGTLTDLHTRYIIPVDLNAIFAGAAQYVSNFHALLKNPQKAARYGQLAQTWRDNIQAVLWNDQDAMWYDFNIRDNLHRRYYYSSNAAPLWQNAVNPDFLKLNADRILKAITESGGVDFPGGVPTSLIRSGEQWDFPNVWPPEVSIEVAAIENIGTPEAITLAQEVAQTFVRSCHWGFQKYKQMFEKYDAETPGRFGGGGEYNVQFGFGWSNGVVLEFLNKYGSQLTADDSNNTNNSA
The format is biochemical.

Substrate in the data set “enzyme kinetics”: OC[C@H]1O[C@H](O[C@H]2O[C@H](CO)[C@@H](O)[C@H](O)[C@H]2O)[C@H](O)[C@@H](O)[C@@H]1O
Kind of data set: enzyme kinetics. The format is biochemical, Helicoverpa armigera.

`O[C@H]1[C@H](O)[C@@H](O)CN2CC[C@H](O)[C@H]12` [castanospermine]: the Ki in data set [1] came to 6.7 µM. That is a single-digit micromolar value.

B1: HaTreh-1 (soluble trehalase) (Helicoverpa armigera) (protein)
chain: DLPQTCTKPVYCNSNLLHQIQMARLYNDSKTFVDLQMNFDENKTLTDFETFFNLHNKNPTKEQLMEFVNEYFSNDNELEPWQPKDFSDNPAFLAKIKDDALREFGKGINNIWPLLARKVKAEVFQKPDQFSLVPLTHGFIIPGGRFKEIYYWDTFWIIEGLLISGMQETAKGMIENLIELLNLFGHIPNGSRWYYQQRSQPPMLNAMVATYYMYTKDLEFLRNNIAYLEKELDFWMDNRVVSVNRGGKNYTLLRYYAPSKGPRPESYYEDYSNTEGFSEEDSTNFYIDIKSAAESGWDFSTRWFLMPDGSNNGTLTDLHTRYIIPVDLNAIFAGAAQYVSNFHALLKNPQKAARYGQLAQTWRDNIQAVLWNDQDAMWYDFNIRDNLHRRYYYSSNAAPLWQNAVNPDFLKLNADRILKAITESGGVDFPGGVPTSLIRSGEQWDFPNVWPPEVSIEVAAIENIGTPEAITLAQEVAQTFVRSCHWGFQKYKQMFEKYDAETPGRFGGGGEYNVQFGFGWSNGVVLEFLNKYGSQLTADDSNNTNNSA
Take B1: in “enzyme kinetics”, the Km is 72.8 mM.

For orientation: Ki means the equilibrium dissociation constant of an inhibitor or competing ligand from its target. Read a low Ki as tighter binding. Usually Km stands for the concentration of substrate that gives half-maximal velocity.
